For 18 compounds, IC50 results are on record in patent US9120749B2, “Quinoline derivatives and MELK inhibitors containing the same” (ONCOTHERAPY SCIENCE, INC., priority 2010, dated 2015).

The structures appear in SMILES notation. Where a name gives a salt, the structure may show the parent alone. Read-outs that look alike come from different tables or passages of the source.

The test system of one test is 22Rv1 cells. Kind of test: Cell-based assay: anti-proliferative activity, Cell Counting Kit-8, 72 hours (22Rv1). Particulars: Homo sapiens, 22Rv1, 72 h.
The subject of the next test is T47D cells. Kind of test: Cell-based assay: anti-proliferative activity, Cell Counting Kit-8, 72 hours (T47D). The conditions noted are these: Homo sapiens, T47D, 72 h. Summed up:
(§1)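 First, lysates underwent western blotting with anti-MELK antibody to establish expression. Next, cells went into 96-well plates. Then candidate inhibitors were added. Finally, viability was determined by CCK-8 at 72 h and IC50 computed.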
(Tetrazolium dyes change colour on reduction, which living cells bring about.)

Another test has as its system HT-1197 cells. Kind of test: Cell-based assay: anti-proliferative activity, Cell Counting Kit-8, 72 hours (HT-1197, negative control without MELK expression). The conditions noted are these: Homo sapiens, HT1197, 72 h, HT1197 cells (negative control, no MELK expression), 72 hours. Summed up:
as §1

The target in another test is MELK (Homo sapiens, UniProt Q14680). Kind of test: Kinase assay: MELK activity, phosphorylation of FITC-labeled histone H3 peptide measured by IMAP fluorescence polarization. The test is classed as biochemical. Particulars: read-out: IC50 (μM) (kinase assay). Summed up: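 Kinase reactions ran with or without test compound (final DMSO 1%) on a fluorescein-tagged H3 peptide. Progressive binding solution was added to terminate them. After a half-hour room-temperature incubation, polarization was measured.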
MELK, sequence (Q14680 whole entry, looked up): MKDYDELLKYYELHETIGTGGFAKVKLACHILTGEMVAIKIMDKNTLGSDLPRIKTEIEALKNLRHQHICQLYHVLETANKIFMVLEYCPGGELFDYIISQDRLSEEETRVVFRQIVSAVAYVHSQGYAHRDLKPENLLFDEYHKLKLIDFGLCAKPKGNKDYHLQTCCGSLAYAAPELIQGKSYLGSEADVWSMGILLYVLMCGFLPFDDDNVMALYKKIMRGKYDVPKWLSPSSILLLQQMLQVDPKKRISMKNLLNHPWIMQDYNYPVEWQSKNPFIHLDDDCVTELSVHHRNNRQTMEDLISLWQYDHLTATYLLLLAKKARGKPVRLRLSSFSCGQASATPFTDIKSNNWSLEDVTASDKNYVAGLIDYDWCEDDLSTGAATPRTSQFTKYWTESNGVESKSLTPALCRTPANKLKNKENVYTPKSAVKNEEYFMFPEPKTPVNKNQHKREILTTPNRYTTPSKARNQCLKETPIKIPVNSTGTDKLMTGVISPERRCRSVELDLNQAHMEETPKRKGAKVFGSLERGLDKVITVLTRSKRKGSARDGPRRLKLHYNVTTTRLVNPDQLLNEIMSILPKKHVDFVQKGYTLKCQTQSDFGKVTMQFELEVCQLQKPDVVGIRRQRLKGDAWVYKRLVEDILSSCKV
In general terms: In fluorescence polarisation assays a small probe gives low polarisation when free and higher when bound to something large.

Another test deals with A549 cells. The test is described as follows: Cell-based assay: anti-proliferative activity, Cell Counting Kit-8, 72 hours (A549). The conditions noted are these: Homo sapiens, A549, 72 h, 72 hours. In short, it runs like this:
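A549 cells seeded in 96-well plates and exposed to candidate inhibitors for 72 hours. Growth measured with Cell Counting Kit-8; IC50 values calculated from the dose response.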

For another test, the system named is DU4475 cells. The test is described as follows: Cell-based assay: anti-proliferative activity, Cell Counting Kit-8, 72 hours (DU4475). Particulars: Homo sapiens, DU-4475, 72 h.
Setting [1] is: MELK kinase assay, IMAP fluorescence polarization, 50 micro-M ATP.

The IC50 is the concentration that inhibits the measured activity by half. For the compound `CCN(C)C[C@H]1CC[C@H](Nc2c(C(C)=O)cnc3ccc(-c4cc(Cl)c(O)c(Cl)c4)cc23)CC1` [Example 817, 1-(6-(3,5-dichloro-4-hydroxyphenyl)-4-((1R,4R)-4-((ethyl(methyl)amino)methyl)cyclohexylamino)quinolin-3-yl)ethanone], the IC50 in the test on 22Rv1 cells was found to be 0.12 µM; in the test with T47D cells it was 0.097 µM; with HT-1197 cells, 11 µM; at MELK (setting [1]), 0.0014 µM; in the test on A549 cells, 0.15 µM; in the test with DU4475 cells it was 0.074 µM.
As to `CCC(=O)c1cnc2ccc(-c3cc(Cl)c(O)c(Cl)c3)cc2c1N[C@H]1CC[C@H](CN2CCCC2)CC1` [Example 843], the IC50 turned out to be 0.19 µM in the test on 22Rv1 cells; 0.15 µM in the test with T47D cells; 4.2 µM in the test on HT-1197 cells; 0.0016 µM on MELK (setting [1]); 0.15 µM with A549 cells; 0.057 µM in the test with DU4475 cells.
Take `CC(=O)c1cnc2ccc(-c3cc(Cl)c(O)c(Cl)c3)cc2c1N[C@H]1CC[C@H](CN2CCCC(N)C2)CC1` (stereo partly drawn) [Example 810]: the IC50 in the test on 22Rv1 cells was 0.056 µM; in the test on T47D cells, 0.034 µM; in the test with HT-1197 cells, 2.3 µM; at MELK it was 0.0018 µM; with A549 cells, 0.12 µM; in the test on DU4475 cells it was 0.044 µM.
Regarding `CC(=O)c1cnc2ccc(-c3cc(Cl)c(O)c(Cl)c3)cc2c1N[C@H]1CC[C@H](CN2CCC(N)C2)CC1` (stereo partly drawn) [Example 779, 1-(4-(1R,4R)-4-((3-aminopyrrolidin-1-yl)methyl)cyclohexylamino)-6-(3,5-dichloro-4-hydroxyphenyl)quinolin-3-yl)ethanone hydrochloride], the IC50 in the test with 22Rv1 cells turned out to be 0.23 µM; with T47D cells, 0.14 µM; with HT-1197 cells, 10 µM; at MELK, 0.0017 µM; in the test on A549 cells it was 1 µM; in the test on DU4475 cells, 0.13 µM.
Regarding `CC(=O)c1cnc2ccc(-c3cc(F)c(O)c(Cl)c3)cc2c1Nc1ccc(OCCN(C)C)nc1` [Example 848, 1-(6-(3-chloro-5-fluoro-4-hydroxyphenyl)-4-(6-(2-(dimethylamino)ethoxy)pyridin-3-ylamino)quinolin-3-yl)ethanone hydrochloride], the IC50 came to 0.44 µM in the test with 22Rv1 cells; 0.14 µM with T47D cells; 5.3 µM in the test on HT-1197 cells; 0.011 µM on MELK (setting [1]); 0.29 µM in the test with A549 cells; 0.16 µM with DU4475 cells.
For `CC(=O)c1cnc2ccc(-c3cc(Cl)c(O)c(Cl)c3)cc2c1Nc1cccc(CCN2CCN(C)CC2)c1` [Example 831, 1-(6-(3,5-dichloro-4-hydroxyphenyl)-4-(3-(2-(4-methylpiperazin-1-yl)ethyl)phenylamino)quinolin-3-yl)ethanone], the IC50 in the test with 22Rv1 cells worked out at 0.83 µM; in the test with T47D cells it was 1.1 µM; in the test on HT-1197 cells, 11 µM; at MELK (setting [1]) it was 0.0054 µM; in the test with A549 cells, 0.32 µM; with DU4475 cells, 0.12 µM.
In the case of `CCN(CC)C[C@H]1CC[C@H](Nc2c(C(C)=O)cnc3ccc(-c4cc(Cl)c(O)c(Cl)c4)cc23)CC1` [Example 790], the IC50 with 22Rv1 cells worked out at 0.14 µM; with T47D cells, 0.1 µM; in the test on HT-1197 cells it was 4.2 µM; at MELK, 0.0018 µM; in the test with A549 cells, 0.14 µM; with DU4475 cells, 0.098 µM.
Consider `CNC1CCN(c2ccc(Nc3c(C(C)=O)cnc4ccc(-c5cc(F)c(O)c(Cl)c5)cc34)cn2)C1` (stereo not drawn) [Example 785, 1-(6-(3-chloro-5-fluoro-4-hydroxyphenyl)-4-((6-(3-(methylamino)pyrrolidin-1-yl)pyridin-3-yl)amino)quinolin-3-yl)ethanone trihydrochloride], for which the IC50 worked out at 0.076 µM with 22Rv1 cells; 0.035 µM in the test on T47D cells; 1.3 µM with HT-1197 cells; 0.0056 µM on MELK; 0.094 µM in the test with A549 cells; 0.074 µM with DU4475 cells.
On to `CC(=O)c1cnc2ccc(-c3cc(Cl)c(O)c(Cl)c3)cc2c1N[C@H]1CC[C@H](CN2CCCC2)CC1` [Example 767], for which the half-inhibitory concentration (IC50) in the test with 22Rv1 cells is 0.15 µM; with T47D cells, 0.12 µM; in the test with HT-1197 cells, 24 µM; on MELK, 0.0018 µM; in the test on A549 cells, 0.16 µM; with DU4475 cells, 0.083 µM.
`CCC(=O)c1cnc2ccc(-c3cc(Cl)c(O)c(OC)c3)cc2c1Nc1ccc(N2CCC(N)C2)nc1` (stereo not drawn) [Example 775, 1-(4-(6-(3-aminopyrrolidin-1-yl)pyridin-3-ylamino)-6-(3-chloro-4-hydroxy-5-methoxyphenyl)quinolin-3-yl)propan-1-one]: the IC50 was found to be 0.12 µM in the test with 22Rv1 cells; 0.049 µM in the test with T47D cells; 0.75 µM in the test on HT-1197 cells; 0.0034 µM at MELK; 0.049 µM in the test with A549 cells; 0.065 µM in the test on DU4475 cells.
With `CC(=O)c1cnc2ccc(-c3cc(F)c(O)c(Cl)c3)cc2c1Nc1ccc(N2CCC(N)C2)nc1` (stereo not drawn) [Example 773, 1-(4-(6-(3-aminopyrrolidin-1-yl)pyridin-3-ylamino)-6-(3-chloro-5-fluoro-4-hydroxyphenyl)quinolin-3-yl)ethanone], the IC50 in the test with 22Rv1 cells is 0.0094 µM; in the test with T47D cells, 0.0042 µM; with HT-1197 cells, 0.7 µM; on MELK, 0.006 µM; with A549 cells, 0.028 µM; in the test with DU4475 cells, 0.017 µM.
Consider `CN(C)CCc1cccc(Nc2c(C(=O)C3CC3)cnc3ccc(-c4cc(F)c(O)c(F)c4)cc23)c1` [Example 796, cyclopropyl(6-(3,5-difluoro-4-hydroxyphenyl)-4-(3-(2-(dimethylamino)ethyl)phenylamino)quinolin-3-yl)methanone], for which the IC50 with 22Rv1 cells was determined as 0.52 µM; with T47D cells, 0.43 µM; in the test on HT-1197 cells it was 0.67 µM; at MELK, 0.026 µM; in the test on A549 cells it was 0.14 µM; with DU4475 cells it was 0.14 µM.
Take `CCC(=O)c1cnc2ccc(-c3cc(F)c(O)c(Cl)c3)cc2c1Nc1ccc(CN(C)C)cc1` [Example 770, 1-(6-(3-chloro-5-fluoro-4-hydroxyphenyl)-4-((4-((dimethylamino)methyl)phenyl)amino)quinolin-3-yl)propan-1-one]: the IC50 in the test with 22Rv1 cells was determined as 0.17 µM; with T47D cells it was 0.074 µM; with HT-1197 cells, 0.84 µM; on MELK it was 0.015 µM; with A549 cells, 0.11 µM; in the test with DU4475 cells, 0.062 µM.
Regarding `CCC(=O)c1cnc2ccc(-c3cc(F)c(O)c(Cl)c3)cc2c1Nc1ccc(N2CCCC(N)C2)nc1` (stereo not drawn) [Example 825, 1-(4-(6-(3-aminopiperidin-1-yl)pyridin-3-ylamino)-6-(3-chloro-5-fluoro-4-hydroxyphenyl)quinolin-3-yl)propan-1-one], the IC50 came to 0.016 µM in the test with 22Rv1 cells; 0.01 µM in the test on T47D cells; 0.069 µM in the test with HT-1197 cells; 0.0018 µM at MELK (setting [1]); 0.017 µM with A549 cells; 0.018 µM in the test with DU4475 cells.
Regarding `CCN(C)C[C@H]1CC[C@H](Nc2c(C(C)=O)cnc3ccc(-c4cc(Cl)c(O)c(OC)c4)cc23)CC1` [Example 816, 1-(6-(3-chloro-4-hydroxy-5-methoxyphenyl)-4-(1R,4R)-4-((ethyl(methyl)amino)methyl)cyclohexylamino)quinolin-3-yl)ethanone hydrochloride], the IC50 came out at 0.44 µM with 22Rv1 cells; 0.28 µM in the test with T47D cells; 7.3 µM with HT-1197 cells; 0.0027 µM on MELK (setting [1]); 0.25 µM with A549 cells; 0.36 µM in the test with DU4475 cells.
Regarding `CNC1CCN(c2ccc(Nc3c(C(=O)C4CC4)cnc4ccc(-c5cc(F)c(O)c(Cl)c5)cc34)cn2)C1` (stereo not drawn) [Example 789, (6-(3-chloro-5-fluoro-4-hydroxyphenyl)-4-((6-(3-(methylamino)pyrrolidin-1-yl)pyridin-3-yl)amino)quinolin-3-yl)(cyclopropyl)methanone trihydrochloride], the IC50 with 22Rv1 cells was 0.077 µM; with T47D cells, 0.039 µM; in the test with HT-1197 cells it was 0.8 µM; at MELK it was 0.0028 µM; in the test on A549 cells it was 0.076 µM; with DU4475 cells, 0.053 µM.
Take `CC(=O)c1cnc2ccc(-c3cc(F)c(O)c(Cl)c3)cc2c1Nc1cnn(C2CCN(C)C2)c1` (stereo not drawn) [Example 813, 1-(6-(3-chloro-5-fluoro-4-hydroxyphenyl)-4-((1-(1-methylpyrrolidin-3-yl)-1H-pyrazol-4-yl)amino)quinolin-3-yl)ethanone dihydrochloride]: the IC50 came to 0.11 µM in the test with 22Rv1 cells; 0.07 µM in the test with T47D cells; 0.75 µM in the test with HT-1197 cells; 0.0021 µM on MELK (setting [1]); 0.25 µM with A549 cells; 0.054 µM in the test on DU4475 cells.
Regarding `O=C(c1cnc2ccc(-c3cc(F)c(O)c(Cl)c3)cc2c1Nc1cccc(CCN2CCCC2)c1)C1CC1` [Example 799, {6-(3-Chloro-5-fluoro-4-hydroxyphenyl)-4-[3-(2-(pyrrolidin-1-yl)ethyl)phenylamino]quinolin-3-yl}(cyclopropyl)methanone], the IC50 with 22Rv1 cells worked out at 0.25 µM; in the test on T47D cells, 0.52 µM; in the test on HT-1197 cells, 10 µM; at MELK, 0.0047 µM; in the test on A549 cells it was 0.081 µM; in the test on DU4475 cells, 0.079 µM.
